Reference: US4563477A, “Process for the preparation of alpha-(N-pyrrolyl)-derivative acids, the salts and esters thereof; alpha-(N-pyrrolyl)-phenylacetic acids, the esters thereof, pharmaceutical compositions containing them and therapeutical applications thereof” (Antibioticos, S.A., priority 1982, dated 1986)

Experiments:
[1] = test system: 0.5% acetic acid induced contorsions in NMRI mice; assay: Peripheral analgesic activity: 0.5% acetic acid induced contorsions in NMRI mice; assay type: in vivo; details: male NMRI mice, n = 10, 100 mg/kg p.o.; for % inhibition relative to control (contorsions) / No mice with contorsions: 0.5% acetic acid i.p.; for No contorsions (X ± s.e.): 0.5% acetic acid i.p. after 30 minutes, observed half an hour, mean ± s.e., control 27.1 ± 4.3, Duncan Kramer test p < 0.05; for No mice with contorsions: control 10/10
Method: The experimental method consists of injecting an irritant, such as acetic acid, into the […] peritoneum and provoking obviously appreciable painful contorsions such as stretching of the rear paws and twisting of the dorso-abdominal muscles.
The material used consisted of lots of NMRI mice bred in our SPF breeding centre under constant temperature and humidity conditions of 23°±0.5° C. and 70±5%.
Standard: acetylsalicylic acid
Vehicle: propylene glycol/water--40/60 v.
Transparent plastic cages.
With this material the mice were randomly distributed into groups of 10 animals. The test order and the treatment to be given to each group was also randomised. […]
The control lot received the vehicle. As standard, acetylsalicylic acid at a dose level of 100 mg/kg, suspended in the same vehicle and administered p.o., was used.
After 30 minutes, 0.25 ml per 20 g body weight of a 0.5% acetic acid solution was administered intraperitoneally.
The number of painful contorsions were counted and, for evaluating the results, the means of the number of stretches of each lot were calculated and were expressed as inhibition percentages relative to the control, as per the following equation: [formula] where c is the mean of the number of stretches of the control group and b is the mean of the number of stretches of the treated group.
The statistical significance between the lots may be ascertained with the Duncan-Kramer test, with p<0.05.
0.5% acetic acid induced contorsions in NMRI mice male (n = 10)

[2] = test system: ADP induced platelet aggregation; assay: "Ex vivo" platelet anti-aggregation activity in rats (ADP induced platelet aggregation, Born aggregometer); design: species or system Wistar rats, ITA 177 SPF; details: 100 mg/kg p.o., n = 5, blood drawn 5 hours after administration; for Platelet aggregation %: control 86.4 ± 2.15, Duncan Kramer test p < 0.05; for Platelet aggregation, % inhibition: relative to control
Method: Acetylsalicyclic acid at a dose level of 100 mg/kg p.o. was used as standard.
The products to be tested were administered at the maximum dose of 200 mg/kg, p.o.
Both the standard and the products were administered dissolved or suspended in a 10 ml/kg Tween solution.
The animals were fasted during the test and for 17 hours prior thereto, but had water "ad libitum".
The % aggregation was calculated measuring the difference in mm in the recorder between the initial aggregation stage and the height of the specimen curve 6 minutes after the onset of aggregation.
This figure, therefore, is calculated as a percentage, taking as 100% the figure in mm of the difference between the platelet rich plasma (prp) and the platelet poor plasma (ppp) obtained in balancing the apparatus for the specimen under examination.
"Ex vivo" platelet anti-aggregation activity in rats

SMILES	% inhibition relative to control (contorsions) [1] [%]	No contorsions (X ± s.e.) [1]	No mice with contorsions [1]	Platelet aggregation % [2] [%]	Platelet aggregation, % inhibition [2] [%]
O=C(O)C(c1ccc(O)cc1)n1cccc1 (racemic) [Dibenzylammonium DL(±)-alpha-(N-pyrrolyl)-p-hydroxy-phenylacetate]	72.3	7.5 ± 2.2	9/10	–	–
O=C(O)[C@H](c1ccccc1)n1cccc1 [L(-)-alpha-(N-pyrrolyl)-phenylacetic acid]	76.2	6.4 ± 1.9	8/10	–	–
O=C(O)[C@@H](c1ccccc1)n1cccc1 [D(+)-alpha-(N-pyrrolyl)-phenylacetic acid]	70.9	7.9 ± 2.6	8/10	–	–
CC(=O)Oc1ccccc1C(=O)O [Acetylsalicylic acid, reference compound]	37.27	17 ± 3.5	10/10	20.1 ± 1.49	76.7
CCCCC1C(=O)N(c2ccccc2)N(c2ccccc2)C1=O [Phenylbutazone, reference compound]	–	–	–	58.2 ± 7.35	32.6
CCOC(=O)C(c1ccccc1)n1cccc1 (racemic) [Ethyl DL(±)-alpha-(N-pyrrolyl)-phenylacetate]	–	–	–	42.0 ± 2.58	51.4
O=C(O)Cn1cccc1 [Alpha-(N-pyrrolyl)-acetic acid]	–	–	–	63.1 ± 3.32	27.0
O=C(O)C(c1ccccc1)n1cccc1 (racemic) [DL(±)-alpha-(N-pyrrolyl)-phenylacetic acid]	79.7	5.5 ± 1.8	7/10	25.3 ± 9.28	70.7
